This note sets out measurements from patent publication US20070105839A1, “2, 4-Di (phenylamino) pyrimidines useful in the treatment of proliferative disorders” (priority 2003, published 2007).

SMILES strings stand for the structures. “And” between values parts separate entries of the source, which are not always exact repeats. Equal values may be shown once. Read-outs that look alike come from different tables or passages of the source.

The test system of data set [1] is human KARPAS-299 lympoma cell line. Briefly: Antiproliferative action in KARPAS-299 lymphoma cell line. The format is cell-based. As to conditions: KARPAS-299 cell line, same methodology as BaF3-NPM-ALK.
Data set [2] relates to human NPM-ALK overexpressing murine BaF3 cells (BaF3-NPM-ALK). Nature of the data set: Growth inhibition of BaF3-NPM-ALK cells (Yopro staining). It is filed as cell-based. As to conditions: Mus musculus, 48 h, two days incubation. The source says:
The expression of NPM-ALK is achieved by transfecting the BaF3 cell line with an expression vector pCIneo™ (Promega Corp., Madison Wis., USA ) coding for NPM-ALK and subsequent selection of G418 resistant cells. Non-transfected BaF3 cells depend on IL-3 for cell survival. In contrast NPM-ALK expressing BaF3 cells (named BaF3-NPM-ALK) can proliferate in the absence of IL-3 because they obtain proliferative signal through NPM-ALK kinase. Putative inhibitors of the NPM-ALK kinase therefore abolish the growth signal and result in antiproliferaflve activity. The antiproliferative activity of putative inhibitors of the NPM-ALK kinase can however be overcome by addition of IL-3 which provides growth signals through an NPM-ALK independent mechanism. [for an analogous cell system using FLT3 kinase see E Weisberg et al. Cancer Cell; 1, 433-443 (2002). The inhibitory activity of the compounds of formula I is determined, briefly, as follows: BaF3-NPM-ALK cells (15 000/microtitre plate well) are transferred to 96-well microtitre plates. The test compounds [dissolved in dimethyl sulfoxide (DMSO)] are added in a series of concentrations (dilution series) in such a manner that the final concentration of DMSO is not greater than 1% (v/v). After the addition, the plates are incubated for two days during which the control cultures without test compound are able to undergo two cell-division cycles. The growth of the BaF3-NPM-ALK cells is measured by means of Yopro™ staining (T ldziorek et al. J. Immunol. Methods; 185:249-58 [1995]): 25 μl of lysis buffer consisting of 20 mM sodium citrate, pH 4.0, 26.8 mM sodium chloride, 0.4% NP40, 20 mM EDTA and […] to each well. Cell lysis was completed within 60 min at room temperature and total amount of Yopro bound to DNA was determined by measurement using the Cytofluor II 96-well reader (PerSeptive Biosystems) with the following settings: Excitation (nm) 485/20 and Emission (nm) 530/25.
IC50 values are determined by a computer-aided system using the formula: ICr50=[(ABStest−ABSstart)/(ABScontrol−ABSstart)]×100.

Data set [3] has as its target T1, recombinant kinase domain of the ALK (Homo sapiens, UniProt Q9UM73).
T1 construct: using the recombinant kinase domain of the ALK
Briefly: Inhibition of ALK tyrosine kinase activity. The format is biochemical. The note with it: each compound tested twice, once each with two different preparations of ALK. Here is the method:
The inhibition of ALK tyrosine kinase activity is measured using known methods, for example using the recombinant kinase domain of the ALK in analogy to the VEGF-R kinase assay described in J. Wood et al. Cancer Res. 60, 2178-2189 (2000). The table below reports the IC50 values for several compounds of the present invention. Each compound is tested twice, once each with two different preparations of ALK.

Where [4] appears, read: with IL3, read-out: BaF3 NPM-ALK with IL3 IC50.
Where [5] appears, read: without IL3, read-out: BaF3 NPM-ALK without IL3 IC50.

T1 sequence (Q9UM73 1116-1392 limits assumed): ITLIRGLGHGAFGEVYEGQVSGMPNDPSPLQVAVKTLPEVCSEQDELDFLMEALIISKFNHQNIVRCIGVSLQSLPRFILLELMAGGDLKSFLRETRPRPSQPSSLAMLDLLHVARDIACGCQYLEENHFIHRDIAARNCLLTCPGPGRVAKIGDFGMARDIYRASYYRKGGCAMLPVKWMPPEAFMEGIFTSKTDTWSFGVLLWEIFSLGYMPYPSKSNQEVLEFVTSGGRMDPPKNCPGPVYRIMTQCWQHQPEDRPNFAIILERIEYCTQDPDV

Regarding `CN(C)S(=O)(=O)c1ccccc1Nc1ccnc(Nc2cccc(OCCn3ccnc3)c2)n1` [Ex. 48], the half-maximal inhibitory concentration (IC50) – broadly, the concentration needed to halve the response being measured – in data set [1] is 0.27 µM; in data set [2] (setting [4]), 1.4 µM; in data set [2] (setting [5]) it was 0.55 µM; in data set [3] it was 0.048 µM and 0.083 µM.
For the molecule `COc1cc(Nc2nccc(Nc3ccccc3S(=O)(=O)N(C)C)n2)cc(OC)c1OC` [Ex. 56], the IC50 was 0.15 µM in data set [1]; 2.7 µM in data set [2] (setting [4]); 0.41 µM in data set [2] (setting [5]); 0.18 µM and 0.086 µM in data set [3].
`CCCNS(=O)(=O)c1ccccc1Nc1ccnc(Nc2cc(OC)c(OC)c(OC)c2)n1` [Ex. 58]: the IC50 in data set [1] is 0.33 µM; in data set [2] (setting [4]), 2.6 µM; in data set [2] (setting [5]) it was 0.56 µM; in data set [3], 0.046 µM and 0.09 µM.
With `COc1cc(Nc2nccc(Nc3cccc(C)c3S(N)(=O)=O)n2)cc(OC)c1OC` [Example 3, 2-methyl-6-[2-(3,4,5-Trimethoxy-phenylamino)-pyrimidin-4-ylamino]-benzenesulfonamide], the melting point (in general, the temperature of the solid-liquid transition) lay within 72 to 75 °C.
